From patent US7294643B2, “UK-1 analogues: methods of preparation and use” (Board of Regents, The University of Texas System, priority 2002, dated 2007)

Columns and labels:
[1] = test system: MCF-7 cells; test: alamarBlue cytotoxicity assay, MCF-7; assay type: cell-based; details: Homo sapiens, MCF7; MCF-7, alamarBlue, 72 h
Method: (§1) Cytotoxicity Assays. Cell culture cytotoxicity assays were performed using the. alamarBlue method, as described by Ahmed et al., J. Immun. Methods 1994, 170, 211-224, which is incorporated herein by reference. Briefly, aliquots of 100 μL of cell suspension (1.0-2.5×10^3 cells) was placed in 96-well microtiter plates in an atmosphere of 5% CO2 at 37° C. After 24 hours, 100 μL of culture medium and 2 μL of compound in vehicle (culture media with 40% pyridine) or vehicle alone were added, and the plates incubated an additional 72 hours. The final pyridine concentration in all cases was 0.4%; at this pyridine concentration there was no affect on the growth of cells compared to cells in culture media without added pyridine. […] After the culture media had been removed from each well, 200 μL of fresh media and 20 μL of 90% alamarBlue reagent were added, followed by an additional 6 h incubation. The fluorescent intensity was measured using a Spectrafluor Plus plate reader with excitation at 530 nm and emission at 590 nm. Results are reported as IC50 values, the average concentration required to produce a decrease of fluorescent intensity of 50% relative to vehicle-treated controls in two separate determinations.

[2] = test system: HL60 cells; test: alamarBlue cytotoxicity assay, HL60; assay type: cell-based, human; details: HL60, alamarBlue, 72 h
Method: as §1

[3] = test system: DU145; test: alamarBlue cytotoxicity assay, DU145; assay type: cell-based; details: Homo sapiens, DU-145
Method: as §1

[4] = test system: A549; test: alamarBlue cytotoxicity assay, A549; assay type: cell-based; details: Homo sapiens
Method: as §1

[5] = test system: SK-N-D7; test: alamarBlue cytotoxicity assay, SK-N-D7; assay type: cell-based
Method: as §1

[6] = test system: SK-N-SH; test: alamarBlue cytotoxicity assay, SK-N-SH; assay type: cell-based; details: Homo sapiens
Method: as §1

[7] = test system: CHP-212; test: alamarBlue cytotoxicity assay, CHP-212; assay type: cell-based; details: Homo sapiens; CHP-212, alamarBlue
Method: as §1

[8] = alamarBlue cytotoxicity, range over four cell lines; assay type: cell-based; details: human
Method: as §1, with “hours.” for “hours. The final pyridine concentration in all cases was 0.4%; at this pyridine concentration there was no affect on the growth of cells compared to cells in culture media without added pyridine.”, “nm.” for “nm. Results are reported as IC50 values, the average concentration required to produce a decrease of fluorescent intensity of 50% relative to vehicle-treated controls in two separate determinations.”

[9] = test system: Staphylococcus aureus ATCC 29213; test: Antimicrobial bioassay, S. aureus; assay type: cell-based; details: Staphylcoccus aureus, concentrations up to 50 μg/mL
Method: Antimicrobial Bioassay: Staphylococcus aureus ATCC 29213 and methicillin-resistant S. aureus ATCC 43300 (MRS) were obtained from the American Type Culture Collection (Rockville, Md.) and stored on agar slants at 4° C. until needed. Susceptibility testing was performed using a modified version of the NCCLS methods: “Methods for Dilution Antimicrobial Susceptibility Tests for Bacteria that Grow Aerobically,” M7-A4, Vol. 17, No. 2, NCCLS, (1997) and “Reference Method for Broth Dilution Antifungal Susceptibility Testing of Yeasts; Approved Standard,” M27-A, Vol. 17, No. 9, NCCLS, (1997), both of which are incorporated herein by reference. Microorganisms were subcultured prior to the assay by suspending cells from the slant in Eugon broth (BBL, Maryland) and incubating for 24 hours at 37° C. Inocula were prepared by diluting the subcultured organism in its incubation broth after comparison to the 0.5 McFarland Standard (a BaSO4 suspension) to afford final inocula ranges of S. aureus: 1.0-5.0×10^5 and MRS: 0.2-6.0×10^5 CFU/ml. Test compounds were dissolved in DMSO, serially-diluted using normal saline, and transferred in duplicate to 96 well flat-bottomed microtiter plates. The microbial inocula were added to the samples to achieve a final volume of 200 μl and final compound concentrations starting with 50 μg/ml. Drug [Ciprofloxacin (ICN Biomedicals, Ohio)] as well as growth and blank (media only) controls were added to each test plate. Plates were read at 630 nm using the EL-340 Biokinetics Reader (Bio-Tek Instruments, Vermont) prior to and after incubation at 37° C. for 24 hours. Percent growth was calculated and plotted versus concentration to afford the IC50, or sample concentration that affords 50% growth of the organism relative to controls.

[10] = test system: Pseudomonas aeruginosa; test: Antimicrobial bioassay, P. aeruginosa; assay type: cell-based; details: concentrations up to 50 μg/mL
[11] = Metal ion binding by continuous variation, Mg2+; details: Mg^2+, methanol, 1:1 complex
Method: (§2) Previous work indicated the metal ion binding mechanism of UK-1, so the method of continuous variation was used to determine the ability of selected UK-1analogues to bind a variety of metal ions. Methanolic solutions of UK-1 or UK-1 analogues and metal ion salts [Ca(NO3)2, Mg(NO3)2, Zn(NO3)2, or Fe(NO3)3] at various molar ratios, and 20 μM combined total concentration, were prepared and the absorbance at 418 nm was determined. […] Compound 2.1 does bind with Ca^2+ and Zn^2+ better than UK-1.
(§3) Continuous variation plots. A 100 μM solution of UK-1 or analogue and 100 AM solutions of Ca(NO3)2, Mg(NO3)2, Zn(NO3)2, or Fe(NO3)3 were prepared in methanol. From these stock solutions, 15 samples (1 mL) of varying mole fraction of the metal ion were prepared at a constant, combined concentration of 20 μM for the ligand and the metal ion. The change in absorbance was monitored from 500 to 200 nm for each sample using as a reference a 1 mL solution containing the same concentration of ligand as the sample being measured but without the metal ion. The maximum absorbance change was typically around 418 nm but varied somewhat for each metal ion. The absorbance at 418 nm was plotted as a function of the mole fraction of the metal ion and the maximum absorbance change was determined. The absorbance of a sample containing the metal ion concentration corresponding to this maximum change and a 15 fold excess of metal ion at this ligand concentration, subtracted from a reference containing the same concentration of ligand but no metal ion was used to normalize the curve and obtain the conditional formation constant as described in the paper to Likussar, W.; Boltz, D. F. Anal. Chem. 1971, 43, 1265-1272, which is incorporated herein by reference.

[12] = Metal ion binding by continuous variation, Ca2+; details: Ca^2+, methanol, 1:1 complex
Method: as §2, §3

## COC(=O)c1cccc2oc(-c3cccc4oc(-c5ccccc5O)nc34)nc12 [UK-1]
[1]
  IC50: 1.6 µM
[2]
  IC50: 0.4 µM
[2]; Homo sapiens, HL-60, 72 h
  IC50: 0.32 µM
[3]
  IC50: 0.2 µM
[4]
  IC50: 1.9 µM
[5]
  IC50: 0.17 µM
[6]
  IC50: 7 µM
[7]
  IC50: 12 µM
[8]
  IC50 at 72 h: 0.32 to 65 µM
[9]
  antibacterial effect: no indication of any antibacterial effect
[10]
  antibacterial effect: no indication of any antibacterial effect
[11]
  Association constant for metal ion binding: 2e+06 M⁻¹
[12]
  Association constant for metal ion binding: 40000 M⁻¹
